Consider six compounds from patent publication US20130102680A1, “METHODS FOR SELECTIVE SILENCING OF SENSORY NEURONS” (CORNELL UNIVERSITY, priority 2011, published 2013).

Series [1] concerns the target T1, rat TRPV1 (Rattus norvegicus, UniProt O35433).
T1 construct: expressed in transfected cells
Kind of series: YO-PRO-1 uptake (imaging / plate-reader) in TRPV1-expressing cells. It is filed as cell-based. The note with it: for fold decrease of t1/2 to maximal YO-PRO-1 fluorescence, pretreated vs not pretreated cells: 50 μM agonist pre-incubated two hours then removed, 5 μM YO-PRO-1, n=3; for agonist-induced YO-PRO-1 uptake: extracellular application. The procedure:
Human embryonic kidney (HEK) 293 cells stably expressing rat TRPV1 were grown in DMEM/F12 with 10% newborn calf serum and antibiotics and cultured in a 5% CO2 aerated incubator at 37° C. Cells were trypsinized and plated on 96-well plates or matrix-coated coverslips for Ca^2+ imaging, YO-PRO-1 imaging, plate-reader assays, or electrophysiological recording. Calcium imaging, fluorescent dye uptake assays, and electrophysiological experiments were all performed 24-72 hours after plating.
Cells were plated in 96-well plates to near confluence. Images were acquired at a rate of 1 frame per 15 sec. The fields were illuminated for 2 sec for each frame. The fluorescent intensity was measured at the emission wavelength of 510/20 nm. 2× concentration of agonists and 10 μM YO-PRO-1 were mixed and added at equal volume to a bath solution with the same electrolyte composition except omitting CaCl2.
TRPV1 cell lines were passed into 96-well plate, grown to confluence, and assayed in a physiological Ringer solution. 50 μl of solution as used for YO-PRO-1 imaging with agonists of various concentrations was added to each well. Fluorescence intensity (485-nm excitation, 516-nm emission) was monitored by Multi-detection Microplate Reader (BioTek). For normalization, cells were fixed by 5% PFA at the end of experiments and counted total fluorescence from each well after adding digitonin solution (Assay Designs) with 5 μM YO-PRO-1.

The target of series [2] is T1, rat TRPV1. Kind of series: Ca^2+ imaging (Fura-2) in HEK293 cells stably expressing rat TRPV1. Format: cell-based. Conditions: for intracellular Ca^2+ level on extracellular application: ratiometric fura-2 imaging.
The target of the next series is T2, rTRPV1 Y511A (Rattus norvegicus, UniProt O35433, Y511A).
T2 construct: expressed in transfected cells; host or cells: HEK cells
Put plainly: YO-PRO-1 entry in HEK cells expressing rTRPV1 Y511A. It is filed as cell-based.

Series [3] concerns the target T1, rat TRPV1. Kind of series: Electrophysiology of membrane patches from HEK cells expressing rat TRPV1. It is filed as cell-based.
For series [4], the system named is voltage gated Na+ channels. Kind of series: Neuronal Na+ currents after cap-ET and/or QX-314 loading, whole-cell recording. The note with it: PAO or cap-ET alone (10 μM), then 5 mM QX-314.

T1 sequence (O35433 whole entry): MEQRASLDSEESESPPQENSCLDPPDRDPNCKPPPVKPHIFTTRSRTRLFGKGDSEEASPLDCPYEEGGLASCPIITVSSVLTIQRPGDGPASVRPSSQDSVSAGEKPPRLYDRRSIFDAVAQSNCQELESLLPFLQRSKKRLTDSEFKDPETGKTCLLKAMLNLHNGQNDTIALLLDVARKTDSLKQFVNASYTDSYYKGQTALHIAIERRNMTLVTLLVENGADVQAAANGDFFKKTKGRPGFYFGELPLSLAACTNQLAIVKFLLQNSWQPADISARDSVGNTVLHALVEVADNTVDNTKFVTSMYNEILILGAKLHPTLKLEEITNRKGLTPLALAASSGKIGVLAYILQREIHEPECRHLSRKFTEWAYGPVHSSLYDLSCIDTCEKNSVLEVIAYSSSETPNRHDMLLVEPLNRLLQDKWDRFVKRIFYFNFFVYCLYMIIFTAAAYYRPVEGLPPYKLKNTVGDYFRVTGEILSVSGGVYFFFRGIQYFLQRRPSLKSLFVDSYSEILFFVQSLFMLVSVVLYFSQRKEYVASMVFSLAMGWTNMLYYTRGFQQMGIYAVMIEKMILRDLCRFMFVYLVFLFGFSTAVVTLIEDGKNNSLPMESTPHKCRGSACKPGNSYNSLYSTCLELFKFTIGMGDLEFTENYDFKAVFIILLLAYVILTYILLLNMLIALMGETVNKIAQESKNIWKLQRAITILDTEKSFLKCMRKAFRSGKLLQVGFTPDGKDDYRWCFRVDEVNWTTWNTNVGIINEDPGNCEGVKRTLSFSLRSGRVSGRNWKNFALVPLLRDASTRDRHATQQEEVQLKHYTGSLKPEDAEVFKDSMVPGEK
T2 sequence (O35433 whole entry Y511A): as the sequence (O35433 whole entry) above, with Y511A counted along it
Description for rTRPV1 Y511A: Cells were plated in 96-well plates to near confluence. Images were acquired at a rate of 1 frame per 15 sec. The fields were illuminated for 2 sec for each frame. […] TRPV1 cell lines were passed into 96-well plate, grown to confluence, and assayed in a physiological Ringer solution. 50 μl of solution as used for YO-[MUT] imaging with agonists of various concentrations was added to each well. Fluorescence intensity (485-nm excitation, 516-nm emission) was monitored by Multi-detection Microplate Reader (BioTek). For normalization, cells were fixed by 5% PFA at the end of experiments and counted total fluorescence from each well after adding digitonin solution (Assay Designs) with 5 μM YO-[MUT].

Regarding `N.N.N.N.N.N.N.N.N.N.N.N.N.N.[Cl-].[Cl-].[Cl-].[Cl-].[Cl-].[Cl-].[O-2].[O-2].[Ru+3].[Ru+3].[Ru+4]` [RR, ruthenium red], the “effect on capsaicin-mediated YO-PRO-1 entry” value on rat TRPV1 [1] (10 μM) is on record as “effectively suppressed YO-PRO-1 entry”.
For `CC[N+](CC)(CC)CCOc1ccc(CNC(=O)CCCC/C=C/C(C)C)cc1OC` [cap-ETEA, capsaicin O-tetra-ethylammonium acetate], on rat TRPV1 [2], the “intracellular Ca^2+ level on extracellular application” value (“intracellular Ca^2+ level” below) is reported as “effectively raised intracellular Ca^2+ levels”.
For `CCCC(=O)O[C@@H]1[C@@H](C)[C@@]2(O)[C@@H](C=C(CO)C[C@]3(O)C(=O)C(C)=C[C@@H]23)[C@@H]2C(C)(C)[C@]12OC(=O)CCC` [PDBu], the “effect on potency of capsaicin or cap-ET for YO-PRO-1 uptake” value on rat TRPV1 [1] is recorded as “increased the potency”.
As to `COc1cc(CNC(=O)CCCC/C=C/C(C)C)ccc1O` [capsaicin], the “intracellular Ca^2+ level” value on rat TRPV1 [2] is “large intracellular Ca^2+ rise”. Further, the “YO-PRO-1 transport via rTRPV1 Y511A mutant” value at rTRPV1 Y511A is on record as “failed to elicit YO-PRO-1 transport”. On rat TRPV1 [1], the “fold decrease of t1/2 to maximal YO-PRO-1 fluorescence, pretreated vs not pretreated cells” value came to 1.14±0.04 fold and the “agonist-induced YO-PRO-1 uptake” value is reported as “induced YO-PRO-1 uptake”.
Regarding `C[n+]1c(C=C2C=CN(CCC[N+](C)(C)C)c3ccccc32)oc2ccccc21` [YO-PRO-1, reference compound], the “block of TRPV1 currents evoked by 10 μM capsaicin” value at rat TRPV1 [3] (5 μM, inside-out patch) is “reversibly blocked”.
Regarding `COc1cc(CNC(=O)CCCC/C=C/C(C)C)ccc1OCC[N+](C)(C)C` [cap-ET, capsaicin O-ethyl (trimethyl-ammonium) acetate], the “hydrophilicity relative to capsaicin, based on water/octanol partitioning” value was “over 300 fold”. At rat TRPV1 [2], the “rank of potency and efficacy in Ca^2+ signals among the three charged capsaicinoids” value is “most potent and efficacious among the three”; the “intracellular Ca^2+ level” value was “effectively raised intracellular Ca^2+ levels”. In addition, the “Na+ current density after QX-314, agent alone” value in series [4] is recorded as “comparable to cells not exposed to QX-314”. Also, the “Icap-ET/Icap (ionic current relative to capsaicin), PAO-sensitized TRPV1” value on rat TRPV1 [3] came to 3.0±0.9%. In addition, the “electric current induced, TRPV1 sensitized by 10 μM PAO” value on rat TRPV1 [3] (100 μM cap-ET) was “recordable but small current”. Besides, the “block of capsaicin-induced TRPV1 currents” value on rat TRPV1 [3] (100 μM cap-ET co-applied with 30 μM capsaicin, from outside or inside) is reported as “strong voltage-dependent block”. On rat TRPV1 [3] (100 μM cap-ET, compared to 30 μM capsaicin), the “electric current induced on cytoplasmic side of inside-out patch” value was “barely detectable electric current”. Further, on rat TRPV1 [1], the “fold decrease of t1/2 to maximal YO-PRO-1 fluorescence, pretreated vs not pretreated cells” value was found to be 5.37±0.99 fold and the “agonist-induced YO-PRO-1 uptake” value is reported as “induced YO-PRO-1 uptake”.
